Data set [1] has as its target T1, Rho-associated protein kinase 2 (Homo sapiens, UniProt O75116). The data set is described as follows: Inhibition of ROCK2 (unknown origin) using STK2 as substrate incubated for 4 hrs by HTRF assay. For orientation: In TR-FRET formats the signal depends on donor and acceptor labels being close together.
Data set [2] concerns the target cAMP-dependent protein kinase (PKA) (Homo sapiens, UniProt P22694+P17612+P22612). The data set is described as follows: Inhibition of PKA (unknown origin). Type of data set: protein assay.
Data set [3] concerns the target T2, Rho-associated protein kinase 1 (Homo sapiens, UniProt Q13464). The data set can be described thus: Inhibition of human ROCK1.
Data set [4] has as its target T1, Rho-associated protein kinase 2. The data set is described as follows: Inhibition of ROCK2 (unknown origin).
The target in data set [5] is T2, Rho-associated protein kinase 1. The data set is described as follows: Inhibition of ROCK1 (unknown origin).
For data set [6], the species on record is Mus musculus. The data set can be described thus: Antidiabetic activity in oxygen induced retinopathy mouse model assessed as decrease in pathological neovascularization at 0.4 %, thrice daily for 6 days by microscopic analysis. Type of data set: functional. Also on record: scale not given: the % may be the effect or the level left. To be noted: time 6 day.

Data set [7] is filed under the species Mus musculus. The data set is described as follows: Antidiabetic activity in oxygen induced retinopathy mouse model assessed as decrease in pathological neovascularization at 0.8 %, thrice daily for 6 days by microscopic analysis. Set-up: scale not given: the % may be the effect or the level left. The conditions noted are these: time 6 day. Type of data set: functional.

For data set [8], the species on record is Mus musculus. The data set is described as follows: Antidiabetic activity in oxygen induced retinopathy mouse model assessed as decrease in fluorescein leakage at 0.8 %, thrice daily for 6 days by fluorescein angiography. It is filed as functional. Also on record: scale not given: the % may be the effect or the level left. To be noted: time 6 day.
Data set [9] has as its target T2, Rho-associated protein kinase 1. The data set can be described thus: Inhibition of GST-tagged ROCK1 (1 to 535 residues) (unknown origin) using S6-peptide as substrate preincubated for 15 mins followed by 33P-ATP addition and measured after 120 mins by scintillation counter analysis.
The target in data set [10] is T1, Rho-associated protein kinase 2. The data set can be described thus: Inhibition of GST-tagged ROCK2 (5 to 554 residues) (unknown origin) using S6-peptide as substrate preincubated for 15 mins followed by 33P-ATP addition and measured after 120 mins by scintillation counter analysis.
Data set [11] has the same target. The data set can be described thus: Inhibition of ROCK2 (unknown origin) assessed as inhibition constant.
For data set [12], the target named is T2, Rho-associated protein kinase 1. The data set can be described thus: Inhibition of ROCK1 (unknown origin) assessed as inhibition constant.
Data set [13] has the same target. The data set is described as follows: Inhibition of human recombinant ROCK1 using S6-peptide as substrate as substrate preincubated for 10 mins followed by 33P-labeled ATP addition and measured after 20 mins by Micro-Beta counter analysis.
Data set [14] addresses Nicotinamide phosphoribosyltransferase (Homo sapiens, UniProt P43490). The data set is described as follows: Inhibition of recombinant human C-terminally-His tagged NAMPT incubated for 2 to 3 hrs by TR-FRET assay.
Data set [15] in a line: Induction of neurogenesis in human Embryonic stem cells assessed as cell proliferation incubated for 4 days by CellTiterGlo luminescence assay. The conditions noted are these: 96 h. Type of data set: functional, cell-based. (In general: Cellular ATP, detected with luciferase, serves as a proxy for viable cell number.)
The target in data set [16] is T1, Rho-associated protein kinase 2. The data set is described as follows: Inhibition of ROCK2 (unknown origin) using 33P-ATP as substrate and measured after 120 mins by radiometric analysis.
Data set [17] addresses Rho-associated protein kinase 2 (Rattus norvegicus, UniProt Q62868). The data set is described as follows: Inhibition of ROCK2 in rat A7R5 cells assessed as MLC phosphorylation at T18/S19 by ELISA. It is filed as cell-based. (In general: An ELISA detects its analyte on a solid surface through an enzyme-linked reagent.)
The nature of data set [18]: Stability of compound in human plasma assessed as half life at 1 uM by LC-MS/MS analysis. Type of data set: ADME, cell-free.
Data set [19] deals with T1, Rho-associated protein kinase 2. The data set is described as follows: Inhibition of human recombinant ROCK2 using 5FAM-AKRRRLSSLRA-COOH as substrate preincubated for 10 mins followed by substrate addition in presence of ATP and measured after 45 mins by TR-FRET assay.
The target in data set [20] is Ribosomal protein S6 kinase alpha-1 (Homo sapiens, UniProt Q15418). The data set is described as follows: Inhibition of RSK1 (unknown origin).
Sequence of Ribosomal protein S6 kinase alpha-1 (Q15418 whole entry): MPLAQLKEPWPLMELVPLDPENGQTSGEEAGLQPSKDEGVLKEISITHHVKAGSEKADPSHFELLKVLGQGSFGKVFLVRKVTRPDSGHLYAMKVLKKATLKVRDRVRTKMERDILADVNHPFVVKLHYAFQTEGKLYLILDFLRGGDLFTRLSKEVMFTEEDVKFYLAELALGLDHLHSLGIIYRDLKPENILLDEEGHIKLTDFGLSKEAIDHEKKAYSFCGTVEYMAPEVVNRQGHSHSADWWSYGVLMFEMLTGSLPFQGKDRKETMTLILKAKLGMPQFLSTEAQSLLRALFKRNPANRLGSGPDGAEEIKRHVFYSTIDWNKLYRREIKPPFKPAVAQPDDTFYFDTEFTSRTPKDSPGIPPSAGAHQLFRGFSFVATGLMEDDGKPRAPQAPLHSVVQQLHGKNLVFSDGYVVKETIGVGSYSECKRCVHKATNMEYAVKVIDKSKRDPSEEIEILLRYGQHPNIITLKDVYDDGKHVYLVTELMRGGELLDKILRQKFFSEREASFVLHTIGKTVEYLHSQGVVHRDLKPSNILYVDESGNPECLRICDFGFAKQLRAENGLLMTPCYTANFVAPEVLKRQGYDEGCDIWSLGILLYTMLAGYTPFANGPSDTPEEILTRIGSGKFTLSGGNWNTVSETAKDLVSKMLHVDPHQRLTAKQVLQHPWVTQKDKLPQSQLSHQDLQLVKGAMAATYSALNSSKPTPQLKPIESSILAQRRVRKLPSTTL
The target of data set [21] is RAC-beta serine/threonine-protein kinase (Homo sapiens, UniProt P31751). The data set is described as follows: Inhibition of AKT2 (unknown origin).
Sequence of RAC-beta serine/threonine-protein kinase (P31751 whole entry): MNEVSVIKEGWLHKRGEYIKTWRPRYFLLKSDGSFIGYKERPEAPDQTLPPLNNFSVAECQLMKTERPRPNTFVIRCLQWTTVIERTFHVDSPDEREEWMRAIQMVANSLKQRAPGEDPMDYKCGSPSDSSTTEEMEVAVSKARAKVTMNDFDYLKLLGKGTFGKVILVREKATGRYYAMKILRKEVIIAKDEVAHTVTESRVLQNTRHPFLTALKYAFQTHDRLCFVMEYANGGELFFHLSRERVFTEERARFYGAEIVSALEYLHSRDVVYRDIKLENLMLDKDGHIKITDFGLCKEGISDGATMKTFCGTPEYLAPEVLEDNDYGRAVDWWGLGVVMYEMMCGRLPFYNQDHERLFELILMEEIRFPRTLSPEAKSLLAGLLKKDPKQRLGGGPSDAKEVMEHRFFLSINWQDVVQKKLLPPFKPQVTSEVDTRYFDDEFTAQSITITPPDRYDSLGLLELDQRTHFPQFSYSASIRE
Data set [22] is described as follows: Inhibition of p70S6K (unknown origin). Also on record: species or system Homo sapiens.
In data set [23] the target is RAC-alpha serine/threonine-protein kinase (Homo sapiens, UniProt P31749). The data set is described as follows: Inhibition of AKT1 (unknown origin).
Sequence of RAC-alpha serine/threonine-protein kinase (P31749 whole entry): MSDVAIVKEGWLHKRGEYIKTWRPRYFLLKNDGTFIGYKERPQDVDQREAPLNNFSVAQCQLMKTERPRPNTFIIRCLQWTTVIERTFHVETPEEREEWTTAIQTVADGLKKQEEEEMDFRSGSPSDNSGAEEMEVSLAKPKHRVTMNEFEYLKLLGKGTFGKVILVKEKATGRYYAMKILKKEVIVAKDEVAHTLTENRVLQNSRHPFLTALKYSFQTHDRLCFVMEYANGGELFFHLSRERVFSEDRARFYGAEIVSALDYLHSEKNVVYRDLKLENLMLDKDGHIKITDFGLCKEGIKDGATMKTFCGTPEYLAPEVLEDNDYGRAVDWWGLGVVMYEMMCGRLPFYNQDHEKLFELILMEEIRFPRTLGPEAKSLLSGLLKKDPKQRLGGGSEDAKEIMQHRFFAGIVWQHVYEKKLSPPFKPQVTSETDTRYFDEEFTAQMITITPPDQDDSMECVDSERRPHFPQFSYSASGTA
Data set [24] in a line: Clearance of Wistar rat at 0.910 mg/kg, po and measured upto 7 hrs by HPLC/MS analysis. It is filed as ADME, organism-based. The conditions noted are these: in vivo, dose 0.91 mg/kg.
Data set [25] is described as follows: Half life of Wistar rat at 0.910 mg/kg, po and measured upto 7 hrs by HPLC/MS analysis. Type of data set: ADME, organism-based. To be noted: in vivo, dose 0.91 mg/kg.
A short description of data set [26]: Oral bioavailability of Wistar rat at 0.910 mg/kg and measured upto 7 hrs by HPLC/MS analysis. Type of data set: ADME, organism-based. The conditions noted are these: in vivo, dose 0.91 mg/kg.
Data set [27] addresses T1, Rho-associated protein kinase 2. The data set is described as follows: Inhibition of human recombinant ROCK2 assessed as inhibition constant by microfluidic mobility shift method.

From ChEMBL document CHEMBL5257016, “Rho Kinase (ROCK) Inhibitors and Their Therapeutic Potential” (J Med Chem, 2016) come the findings set out here.

T2 sequence (Q13464 whole entry): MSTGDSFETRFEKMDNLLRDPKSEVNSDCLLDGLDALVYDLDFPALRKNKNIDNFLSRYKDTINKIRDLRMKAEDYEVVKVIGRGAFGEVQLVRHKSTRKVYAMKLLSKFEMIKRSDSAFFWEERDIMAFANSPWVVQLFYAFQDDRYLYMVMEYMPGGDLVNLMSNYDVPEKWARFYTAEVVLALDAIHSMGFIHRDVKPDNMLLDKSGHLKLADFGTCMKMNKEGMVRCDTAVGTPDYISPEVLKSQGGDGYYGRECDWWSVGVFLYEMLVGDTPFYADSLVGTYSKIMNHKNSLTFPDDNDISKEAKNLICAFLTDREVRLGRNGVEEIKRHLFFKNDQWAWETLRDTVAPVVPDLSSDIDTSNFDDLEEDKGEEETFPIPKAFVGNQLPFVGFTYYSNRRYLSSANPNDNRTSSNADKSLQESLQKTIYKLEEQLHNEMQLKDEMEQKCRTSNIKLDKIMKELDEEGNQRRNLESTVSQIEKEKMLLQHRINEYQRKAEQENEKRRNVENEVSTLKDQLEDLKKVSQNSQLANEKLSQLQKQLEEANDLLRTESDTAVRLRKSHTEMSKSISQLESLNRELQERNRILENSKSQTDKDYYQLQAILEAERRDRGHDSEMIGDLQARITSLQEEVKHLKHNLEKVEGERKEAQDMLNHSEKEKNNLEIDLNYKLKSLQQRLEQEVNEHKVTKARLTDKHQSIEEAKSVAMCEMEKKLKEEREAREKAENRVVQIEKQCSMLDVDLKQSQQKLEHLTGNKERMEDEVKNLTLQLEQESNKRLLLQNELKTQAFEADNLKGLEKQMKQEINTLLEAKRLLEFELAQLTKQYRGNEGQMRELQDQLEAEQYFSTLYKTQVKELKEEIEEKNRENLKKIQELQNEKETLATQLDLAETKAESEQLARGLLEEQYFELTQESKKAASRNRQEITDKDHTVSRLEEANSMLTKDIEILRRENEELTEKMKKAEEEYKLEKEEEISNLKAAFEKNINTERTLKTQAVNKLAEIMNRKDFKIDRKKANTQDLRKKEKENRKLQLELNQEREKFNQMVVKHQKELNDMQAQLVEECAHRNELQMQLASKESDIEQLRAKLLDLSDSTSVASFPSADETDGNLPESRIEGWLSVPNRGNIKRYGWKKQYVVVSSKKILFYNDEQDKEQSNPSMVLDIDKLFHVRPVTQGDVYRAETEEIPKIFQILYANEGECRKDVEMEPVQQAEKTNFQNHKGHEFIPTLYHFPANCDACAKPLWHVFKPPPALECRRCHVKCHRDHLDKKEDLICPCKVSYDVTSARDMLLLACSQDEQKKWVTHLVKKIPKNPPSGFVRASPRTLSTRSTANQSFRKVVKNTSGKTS
T1 sequence (O75116 whole entry): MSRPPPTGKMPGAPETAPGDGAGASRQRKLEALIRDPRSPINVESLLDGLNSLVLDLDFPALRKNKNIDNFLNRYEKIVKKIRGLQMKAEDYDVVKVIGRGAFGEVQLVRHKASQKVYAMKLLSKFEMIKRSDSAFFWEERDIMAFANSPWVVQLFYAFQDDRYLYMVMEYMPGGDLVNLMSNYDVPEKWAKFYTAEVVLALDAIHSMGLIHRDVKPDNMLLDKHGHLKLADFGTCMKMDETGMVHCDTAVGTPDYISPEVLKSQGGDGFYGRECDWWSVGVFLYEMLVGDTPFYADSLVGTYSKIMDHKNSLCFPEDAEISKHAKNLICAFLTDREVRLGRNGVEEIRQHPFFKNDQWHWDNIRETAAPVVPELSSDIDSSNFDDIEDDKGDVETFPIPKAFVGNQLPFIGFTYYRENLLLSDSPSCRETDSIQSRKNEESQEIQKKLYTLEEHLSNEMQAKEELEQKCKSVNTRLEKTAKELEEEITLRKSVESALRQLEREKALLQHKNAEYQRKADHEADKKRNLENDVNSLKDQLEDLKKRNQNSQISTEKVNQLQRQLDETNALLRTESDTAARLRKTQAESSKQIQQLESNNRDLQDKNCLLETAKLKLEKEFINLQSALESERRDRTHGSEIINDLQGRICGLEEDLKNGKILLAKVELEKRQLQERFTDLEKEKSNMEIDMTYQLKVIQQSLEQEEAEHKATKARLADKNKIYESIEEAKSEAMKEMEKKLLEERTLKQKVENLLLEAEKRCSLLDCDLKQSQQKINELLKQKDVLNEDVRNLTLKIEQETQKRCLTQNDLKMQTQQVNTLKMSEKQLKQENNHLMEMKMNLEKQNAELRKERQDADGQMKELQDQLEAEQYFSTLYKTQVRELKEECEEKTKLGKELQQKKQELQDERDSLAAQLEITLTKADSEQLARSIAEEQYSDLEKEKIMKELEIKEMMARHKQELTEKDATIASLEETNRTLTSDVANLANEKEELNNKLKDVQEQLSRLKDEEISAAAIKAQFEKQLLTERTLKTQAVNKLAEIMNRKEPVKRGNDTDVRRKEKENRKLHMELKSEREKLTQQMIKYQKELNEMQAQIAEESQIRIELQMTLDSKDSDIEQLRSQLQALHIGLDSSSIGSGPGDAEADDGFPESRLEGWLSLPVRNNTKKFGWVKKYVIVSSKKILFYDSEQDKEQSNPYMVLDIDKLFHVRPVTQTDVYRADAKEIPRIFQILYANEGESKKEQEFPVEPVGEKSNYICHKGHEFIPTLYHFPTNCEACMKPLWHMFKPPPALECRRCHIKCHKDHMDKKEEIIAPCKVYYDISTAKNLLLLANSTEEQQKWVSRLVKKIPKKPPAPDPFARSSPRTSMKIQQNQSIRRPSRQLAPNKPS
Sequence of Nicotinamide phosphoribosyltransferase (P43490 whole entry): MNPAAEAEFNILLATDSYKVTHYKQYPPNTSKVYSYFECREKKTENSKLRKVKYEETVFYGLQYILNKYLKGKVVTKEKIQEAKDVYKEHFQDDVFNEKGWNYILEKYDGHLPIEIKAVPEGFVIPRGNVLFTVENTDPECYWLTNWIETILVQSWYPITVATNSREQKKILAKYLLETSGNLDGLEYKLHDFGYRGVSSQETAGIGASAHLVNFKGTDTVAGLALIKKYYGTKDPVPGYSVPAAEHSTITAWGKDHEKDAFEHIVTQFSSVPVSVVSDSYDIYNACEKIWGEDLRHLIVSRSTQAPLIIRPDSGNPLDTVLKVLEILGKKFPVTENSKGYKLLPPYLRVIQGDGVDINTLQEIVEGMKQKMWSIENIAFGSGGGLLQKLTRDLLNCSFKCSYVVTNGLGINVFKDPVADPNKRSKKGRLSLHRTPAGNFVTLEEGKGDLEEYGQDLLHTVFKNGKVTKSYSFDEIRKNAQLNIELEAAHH

Broadly, the IC50 is the concentration at which inhibition is half-maximal. `COc1cccc(CNC(=O)c2cc3ccc(-c4cn[nH]c4)cc3[nH]2)c1`: the IC50 came out at 1.6 nM in [1] and 6740 nM in [2].
For `COc1cccc(CNC(=O)c2c[nH]c3cc(-c4cn[nH]c4)ccc23)c1`, the IC50 in data set [1] is less than 1 nM; in [2], 3340 nM.
`COc1cccc(CNC(=O)c2[nH]c3cc(-c4cn[nH]c4)ccc3c2CN(C)C)c1` had an IC50 in data set [2] of 1510 nM.
On to `O=C(Nc1ccc(-c2ccncc2)cc1)N[C@@H](CO)c1ccccc1`, for which, in [3], the IC50 is 85 nM.
For the compound `O=C(NCc1c(Cl)cccc1Cl)Nc1ccc2[nH]ncc2c1`, in data set [4], the IC50 was determined as 20 nM.
Consider `O=C(Nc1ccc(-c2cn[nH]c2)cc1)OCc1ccccc1`, for which the IC50 in data set [2] was more than 20000 nM.
In the case of `C[C@@H](N)c1ccc(C(=O)Nc2ccncc2)cc1`, in [4], inhibition was half-maximal at 200 nM (IC50).
With `O=C(NCc1cccc(O)c1)Nc1nc(-c2ccncc2)cs1`, the IC50 in data set [5] was determined as 14.5 nM.
In the case of `C[C@H]1CNCCCN1S(=O)(=O)c1cccc2cncc(F)c12`, the Activity is listed as 23% in the data set filed under Mus musculus [6], 41.9% in the data set filed under Mus musculus [7] and 58.4% in the data set listed under Mus musculus [8].
As for `NCc1ccc(Oc2ccc3c(c2)B(O)OC3)c(F)c1`, the IC50 in [9] is 810 nM; in [10] it was 540 nM.
For the compound `NCc1ccc(Oc2ccc3c(c2)B(O)OC3)c(Cl)c1`, the IC50 in data set [9] was 730 nM; in [10] it was 340 nM.
As usually defined, the Ki is the dissociation constant of the complex between target and ligand, obtained from inhibition or displacement. `OCCOc1cccc(CN2CC[C@@H](Nc3cccc4cnccc34)C2)c1`: the figures for the Ki in data set [11] and in [12] were 14 nM and 5 nM, respectively.
Regarding `C[C@@H](N)[C@H]1CC[C@H](C(=O)Nc2ccnc3[nH]ccc23)CC1`, the Ki in data set [11] came to 10 nM.
Take `COc1cccc(CN(C(=O)c2n[nH]c3cc(-c4cn[nH]c4)ccc23)C2CC2)c1`: the 50% inhibitory concentration (IC50) in data set [1] is 6 nM; in data set [2] it was more than 20000 nM.
Consider `Nc1nc(Nc2ccc(Oc3ccc4[nH]ncc4c3)c(F)c2)cc(-c2ccncc2)n1`, for which, in data set [13], the IC50 turned out to be 20 nM.
Take `COc1cccc(CN(CCN(C)C)C(=O)c2n[nH]c3cc(-c4cn[nH]c4)ccc23)c1`: the half-maximal inhibitory concentration (IC50) in data set [1] was less than 1 nM; in data set [2] it was 184 nM.
`COc1cccc(CNC(=O)c2nc3ccc(-c4cn[nH]c4)cc3[nH]2)c1`: the IC50 in [1] worked out at 4 nM; in data set [2], 1530 nM.
Compound `N#Cc1c[nH]c2nccc(Oc3c(F)cc(Nc4ccnc(N)n4)cc3F)c12` returned a half-maximal inhibitory concentration (IC50) in [4] of 1 nM.
As to `O=C(Nc1ccc(-c2n[nH]c(=O)c3c2CCCC3)cc1)N1Cc2ccc(Cl)cc2C1`, in data set [14], the IC50 is 44 nM.
As for `COc1cc(-c2cn[nH]c2)ccc1NC(=O)CCc1ccccc1`, in data set [15], the 50% inhibitory concentration (IC50) stood at 84 nM.
For the compound `COc1cccc(CNC(=O)c2cc3cc(-c4cn[nH]c4)ccc3[nH]2)c1`, the IC50 in data set [1] was 17 nM; in data set [2] it was more than 20000 nM.
In the case of `O=C(Nc1ccc(-c2n[nH]c(=O)c3c2CCCC3)cc1)N1Cc2ccc(F)cc2C1`, the IC50 in data set [14] stood at 45 nM.
`Cc1nnnn1-c1ccc(C(=O)NCc2cccc(C(=O)NC3=NC4CCN(C)CC4S3)c2)cc1` (stereo unspecified): the IC50 in [4] turned out to be 6 nM.
The compound `O=C(Cc1ccccc1Cl)Nc1ccc(-c2cn[nH]c2)cc1OCCN1CCCC1` displayed an IC50 in data set [4] of 9 nM.
As a reminder, the half-life is how long it takes for the measured level to halve. Turning to `O=C(OCC1CCCO1)c1cccc(CN2CCCC(Nc3ccc4[nH]ncc4c3)C2)c1` (stereo unspecified), the IC50 in data set [16] was found to be 3 nM; in [17] it was 240 nM. The half-life at 1 µM in data set [18] was less than 5 min.
As for `COc1cccc(CNC(=O)c2n[nH]c3ccc(-c4cn[nH]c4)cc23)c1`, in data set [1], the IC50 came out at 67 nM.
As for `COc1cccc(CNC(=O)c2n[nH]c3cc(-c4cn[nH]c4)ccc23)c1`, the IC50 in data set [1] is less than 1 nM; in data set [2], 3340 nM.
As for `O=C(Nc1ccc(-c2cn[nH]c2)cc1)[C@@H]1CNC[C@H]1c1ccccc1`, in data set [4], inhibition was half-maximal at 33 nM (IC50).
On the same count and under the same terms, for `NC(=O)c1cc(F)c(N[C@H]2CC[C@H](N)CC2)cc1F` the value was 26 nM.
With `COc1cccc(CNC(=O)c2nn(C)c3cc(-c4cn[nH]c4)ccc23)c1`, the IC50 in data set [1] is less than 1 nM; in [2], 1520 nM.
For `Nc1nc(Nc2ccc(Oc3ccc4[nH]ncc4c3)c(F)c2)cc(N2C[C@@H]3CCCN[C@@H]3C2)n1`, in data set [13], the IC50 was 6 nM.
For the compound `COc1nc(Nc2ccc3[nH]ncc3c2)nc(N2CCNCC2)n1`, the IC50 in data set [19] was 20 nM.
In data set [1], `COc1cccc(CNC(=O)c2c[nH]c3ccc(-c4cn[nH]c4)cc23)c1` displayed an IC50 of 67 nM.
For the compound `Cc1c(Oc2ccc(CN)cc2F)ccc2c1B(O)OC2`, the figures for the IC50 in data set [9] and in data set [10] were 250 nM and 220 nM, respectively.
Turning to `NC[C@@](O)(c1ccc(Cl)cc1)c1ccc(-c2cn[nH]c2)cc1` [AT-13148], the IC50 was less than 10 nM in [4]; less than 10 nM in [5]; less than 10 nM in data set [2]; 85 nM in [20]; 402 nM in [21]; less than 10 nM in [22]. Besides, inhibition in data set [23] was half-maximal at 38 nM (IC50).
For orientation: CL/F means clearance divided by bioavailability, as obtained after extravascular dosing. For orientation: bioavailability means dose-corrected exposure relative to a reference, in per cent. `Cc1c[nH]c2nccc(Oc3c(F)cc(Nc4cc(Cl)nc(N)n4)cc3F)c12` [BAY-549] gave a CL/F in [24] of 28.3 mL/min/kg. In data set [25], this compound gave a half-life of 1.2 h. The compound further returned a bioavailability in [26] of 48%.
As for `O=c1[nH]ccc2cc(OC3CCNCC3)ccc12` [SAR-407899 FREE BASE], the Ki in [27] is 36 nM.
